Data set [1] has as its target T1, recombinant TCE2 (Tetranychus cinnabarinus, UniProt B3TFG7).
T1 construct: pCold II (vector His tag), E. coli BL21(DE3), Ni-NTA purified; about 63 kDa
T1 sequence (B3TFG7 24-560): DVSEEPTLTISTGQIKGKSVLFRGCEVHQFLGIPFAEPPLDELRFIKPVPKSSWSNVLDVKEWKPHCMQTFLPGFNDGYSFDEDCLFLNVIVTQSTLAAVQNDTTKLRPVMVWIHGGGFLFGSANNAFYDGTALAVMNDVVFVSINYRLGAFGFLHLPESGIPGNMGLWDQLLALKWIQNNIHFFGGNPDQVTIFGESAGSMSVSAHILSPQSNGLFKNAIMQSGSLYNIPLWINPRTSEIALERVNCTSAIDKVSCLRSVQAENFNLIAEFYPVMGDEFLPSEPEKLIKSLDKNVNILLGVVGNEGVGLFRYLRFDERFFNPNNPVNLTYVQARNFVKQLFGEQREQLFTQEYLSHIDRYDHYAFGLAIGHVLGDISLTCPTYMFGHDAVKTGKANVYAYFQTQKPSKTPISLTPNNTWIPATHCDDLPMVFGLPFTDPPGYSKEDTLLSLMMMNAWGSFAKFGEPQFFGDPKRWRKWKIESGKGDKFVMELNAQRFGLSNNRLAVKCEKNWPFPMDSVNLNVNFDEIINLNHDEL
As to the kind of experiment: colorimetric esterase inhibition assay, microplate (Fast blue B, […] nm). It counts as biochemical.

The target of data set [2] is T1, recombinant TCE2. As to the kind of experiment: Dixon plot, colorimetric esterase assay (Fast blue B). It counts as biochemical.
Substrate in the data set “purified protein”: CC(=O)Oc1cccc2ccccc12
In words: purified protein. The format is biochemical, Tetranychus cinnabarinus. The following applies: 0.04 M PBS pH 7.4, 30 °C, 10 min.

Consider `COCCOC(=O)C(C#N)(C(=O)c1ccccc1C(F)(F)F)c1ccc(C(C)(C)C)cc1` (stereo not drawn) [cyflumetofen], for which, at recombinant TCE2 [1], the half-maximal inhibitory concentration (IC50) amounted to 129 ± 12.7 µM. Besides, the Ki at recombinant TCE2 [2] came out at 182 ± 17.7 µM.

For `CC1(C)C(C(=O)OC(C#N)c2cccc(Oc3ccccc3)c2)C1(C)C` (stereo not drawn) [fenpropathrin], the IC50 on recombinant TCE2 [1] was 235 ± 15.3 µM. Also, at recombinant TCE2 [2], the inhibition constant (Ki) came to 356 ± 35.4 µM.

B1: recombinant TCE2 (Tetranychus cinnabarinus) (protein)
chain: DVSEEPTLTISTGQIKGKSVLFRGCEVHQFLGIPFAEPPLDELRFIKPVPKSSWSNVLDVKEWKPHCMQTFLPGFNDGYSFDEDCLFLNVIVTQSTLAAVQNDTTKLRPVMVWIHGGGFLFGSANNAFYDGTALAVMNDVVFVSINYRLGAFGFLHLPESGIPGNMGLWDQLLALKWIQNNIHFFGGNPDQVTIFGESAGSMSVSAHILSPQSNGLFKNAIMQSGSLYNIPLWINPRTSEIALERVNCTSAIDKVSCLRSVQAENFNLIAEFYPVMGDEFLPSEPEKLIKSLDKNVNILLGVVGNEGVGLFRYLRFDERFFNPNNPVNLTYVQARNFVKQLFGEQREQLFTQEYLSHIDRYDHYAFGLAIGHVLGDISLTCPTYMFGHDAVKTGKANVYAYFQTQKPSKTPISLTPNNTWIPATHCDDLPMVFGLPFTDPPGYSKEDTLLSLMMMNAWGSFAKFGEPQFFGDPKRWRKWKIESGKGDKFVMELNAQRFGLSNNRLAVKCEKNWPFPMDSVNLNVNFDEIINLNHDEL
notes: pCold II (vector His tag), E. coli BL21(DE3), Ni-NTA purified; about 63 kDa
As to B1, in the data set “purified protein”, the Michaelis constant (Km) came out at 30.5 ± 5.9 µM and the maximum rate (Vmax) was 0.448 µmol/min/mg.

As a reminder, the IC50 is the point on the concentration scale where inhibition reaches its midpoint. In general, Ki refers to a measure of affinity in units of concentration, obtained from inhibition or displacement. A word on the Km: it is the concentration of substrate that gives half-maximal velocity. The term Vmax denotes the top rate of the reaction or transport when substrate is in excess.
